Source: patent US10590113B2, “6-hydroxy-4-oxo-1,4-dihydropyrimidine-5-carboxamides as APJ agonists” (priority 2016, dated 2020)

The compounds below were run against T1, human APJ receptor (Homo sapiens, UniProt P35414) (assay: Intracellular cAMP Accumulation Assay (APJ hcAMP, HTRF)). Conditions: not given.
T1 construct: expressed in transfected cells; host or cells: HEK293
T1 sequence (P35414 1-380): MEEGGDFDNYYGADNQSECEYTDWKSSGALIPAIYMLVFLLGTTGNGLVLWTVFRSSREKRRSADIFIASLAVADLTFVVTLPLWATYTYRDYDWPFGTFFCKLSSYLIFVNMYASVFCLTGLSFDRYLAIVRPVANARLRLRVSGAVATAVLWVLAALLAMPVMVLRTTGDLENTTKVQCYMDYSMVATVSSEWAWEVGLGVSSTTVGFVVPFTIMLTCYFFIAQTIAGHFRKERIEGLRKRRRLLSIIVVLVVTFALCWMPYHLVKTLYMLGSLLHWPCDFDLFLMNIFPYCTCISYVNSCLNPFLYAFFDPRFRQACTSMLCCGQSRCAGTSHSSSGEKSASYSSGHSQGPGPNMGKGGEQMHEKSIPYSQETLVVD
Assay type: cell-based
Outline: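 Stably transfected HEK293 cells (5,000/well) incubated 30 min at room temperature with serially diluted compound, […] and 2 μM forskolin. cAMP measured by HTRF after 60 min with detection reagents, quantified against a cAMP standard curve; EC50 from variable-slope sigmoidal fit of inhibition of forskolin-stimulated cAMP.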
Work on `CCCCc1nc(=O)c(C(=O)N2CCC(c3ccccn3)C2)c(O)n1-c1c(OC)cccc1OC` (single isomer, unassigned) [Example 68, 2-butyl-1-(2,6-dimethoxyphenyl)-6-hydroxy-5-[3-(pyridin-2-yl)pyrrolidine-1-carbonyl]-1,4-dihydropyrimidin-4-one] yielded an EC50 of 0.01 to 10 nM.
In the case of `CCCCc1nc(=O)c(C(=O)N2CCC(c3ccncc3)C2)c(O)n1-c1c(OC)cccc1OC` (single isomer, unassigned) [Example 47, 2-butyl-1-(2,6-dimethoxyphenyl)-6-hydroxy-5-[3-(pyridin-4-yl)pyrrolidine-1-carbonyl]-1,4-dihydropyrimidin-4-one], the EC50 is reported as 0.01 to 10 nM.

Same assay, conditions: HEK293 cells stably expressing human APJ receptor; inhibition of forskolin-mediated cAMP production; read-out: Human APJ cAMP EC50 potency range
Compound `CCCCc1nc(=O)c(C(=O)N2CC[C@H](c3ccccc3)C2)c(O)n1-c1c(C2CC2)cccc1C1CC1` [Example 2, (R)-2-Butyl-1-(2,6-dicyclopropylphenyl)-6-hydroxy-5-(3-phenylpyrrolidine-1-carbonyl)pyrimidin-4(1H)-one] has an EC50 of 0.01 to 10 nM.

Same assay, conditions: human APJ, cAMP accumulation; potency range class; read-out: hAPJ cAMP EC50 Potency range
`CCc1cccc(CC)c1-n1c(-c2ccn(C3CC3)n2)nc(=O)c(C(=O)N2CCC(c3ncccc3F)C2)c1O` (single isomer, unassigned) [Example 319, 2-(1-cyclopropyl-1H-pyrazol-3-yl)-1-(2,6-diethylphenyl)-5[3(3-fluoropyridin-2-yl)pyrrolidine-1-carbonyl]-6-hydroxy-1,4-dihydropyrimidin-4-one] was tested, and the EC50 was 0.01 to 10 nM.
Work on `COc1cccc(OC)c1-n1c(-c2cc(C)ccn2)nc(=O)c(C(=O)N2CCC(c3ccccc3F)C2)c1O` (single isomer, unassigned) [Example 239, 1-(2,6-dimethoxyphenyl)-5-[3-(2-fluorophenyl)pyrrolidine-1-carbonyl]-6-hydroxy-2-(4-methylpyridin-2-yl)-1,4-dihydropyrimidin-4-one] yielded an EC50 of 0.01 to 10 nM.
With `CCn1ccc(-c2nc(=O)c(C(=O)N3CC[C@H](c4ccccc4)C3)c(O)n2-c2cccc(C(C)C)c2)n1` [Example 291, 2-(1-ethyl-1H-pyrazol-3-yl)-6-hydroxy-5-[(3R)-3-phenylpyrrolidine-1-carbonyl]-1-[3-(propan-2-yl)phenyl]-1,4-dihydropyrimidin-4-one] the EC50 was 0.01 to 10 nM.
`COc1ccnc(-c2nc(=O)c(C(=O)N3CCC(c4c(F)cccc4F)C3)c(O)n2-c2c(OC)cccc2OC)c1` (single isomer, unassigned) [Example 273, 5-[3-(2,6-difluorophenyl)pyrrolidine-1-carbonyl]-1-(2,6-dimethoxyphenyl)-6-hydroxy-2-(4-methoxypyridin-2-yl)-1,4-dihydropyrimidin-4-one] showed an EC50 of 0.01 to 10 nM.
In the case of `COc1cccc(OC)c1-n1c(-c2cncc(Cl)c2)nc(=O)c(C(=O)N2CCC(c3ccccc3C#N)C2)c1O` (single isomer, unassigned) [Example 243, 2-{1-[2-(5-chloropyridin-3-yl)-1-(2,6-dimethoxyphenyl)-6-hydroxy-4-oxo-1,4-dihydropyrimidine-5-carbonyl]pyrrolidin-3-yl}benzonitrile], the EC50 is reported as 0.01 to 10 nM.
`CCc1cccc(CC)c1-n1c(-c2ccn(C)n2)nc(=O)c(C(=O)N2CC[C@@H](c3ccccc3)C2)c1O` [Example 285, 1-(2,6-diethylphenyl)-6-hydroxy-2-(1-methyl-1H-pyrazol-3-yl)-5-[(3S)-3-phenylpyrrolidine-1-carbonyl]-1,4-dihydropyrimidin-4-one] showed an EC50 of 0.01 to 10 nM.
Compound `COc1cccc(-c2nc(=O)c(C(=O)N3CCC(c4ncc(F)cc4F)C3)c(O)n2-c2c(OC)cccc2OC)c1` (single isomer, unassigned) [Example 246, 5-[3-(3,5-difluoropyridin-2-yl)pyrrolidine-1-carbonyl]-1-(2,6-dimethoxyphenyl)-6-hydroxy-2-(3-methoxyphenyl)-1,4-dihydropyrimidin-4-one] has an EC50 of 0.01 to 10 nM.
`CCc1cccc(CC)c1-n1c(-c2ccn(CC)n2)nc(=O)c(C(=O)N2CCC(c3ncccc3F)C2)c1O` (single isomer, unassigned) [Example 308, 1-(2,6-diethylphenyl)-2-(1-ethyl-1H-pyrazol-3-yl)-5-[3-(3-fluoropyridin-2-yl)pyrrolidine-1-carbonyl]-6-hydroxy-1,4-dihydropyrimidin-4-one] gave an EC50 of 0.01 to 10 nM.
Work on `CCc1cccc(CC)c1-n1c(-c2csc(C)n2)nc(=O)c(C(=O)N2CC[C@H](c3ccccc3)C2)c1O` [Example 301, 1-(2,6-diethylphenyl)-6-hydroxy-2-(2-methyl-1,3-thiazol-4-yl)-5-[(3R)-3-phenylpyrrolidine-1-carbonyl]-1,4-dihydropyrimidin-4-one] yielded an EC50 of 0.01 to 10 nM.
Compound `COc1cccc(OC)c1-n1c(CC2CC2)nc(=O)c(C(=O)N2CCC(c3ccc(Cl)nc3)CC2)c1O` [Example 227, 5-[4-(6-chloropyridin-3-yl)piperidine-1-carbonyl]-2-(cyclopropylmethyl)-1-(2,6-dimethoxyphenyl)-6-hydroxy-1,4-dihydropyrimidin-4-one] has an EC50 of 10 to 100 nM.

Same assay, conditions: human APJ, intracellular cAMP accumulation; read-out: hAPJ cAMP EC50 Potency range
`CCCCc1nc(=O)c(C(=O)N2CCC(c3ccc(F)cc3)C2)c(O)n1-c1c(OC)cccc1OC` (single isomer, unassigned) [Example 79, 2-butyl-1-(2,6-dimethoxyphenyl)-5-[3-(4-fluorophenyl)pyrrolidine-1-carbonyl]-6-hydroxy-1,4-dihydropyrimidin-4-one] was tested, and the EC50 was 0.01 to 10 nM.
`CCCCc1nc(=O)c(C(=O)N2CC[C@@H](c3ccccc3)C2)c(O)n1C(C)c1cccnc1` (stereo partly drawn) [Example 146, 2-butyl-6-hydroxy-5-[(3S)-3-phenylpyrrolidine-1-carbonyl]-3-[1-(pyridin-3-yl)ethyl]-3,4-dihydropyrimidin-4-one] showed an EC50 of 10 to 100 nM.
In the case of `COc1cccc(OC)c1-n1c(CCC(C)C)nc(=O)c(C(=O)N2CC[C@H](c3ccccc3)C2)c1O` [Example 14, (R)-1-(2,6-dimethoxyphenyl)-6-hydroxy-2-isopentyl-5-(3-phenylpyrrolidine-1-carbonyl)pyrimidin-4(1H)-one], the EC50 is reported as 0.01 to 10 nM.
`CCCCc1nc(=O)c(C(=O)N2CC[C@H](c3ccccc3)C2)c(O)n1[C@@H](C)C1CC1` [Example 126, 2-butyl-3-[(1S)-1-cyclopropylethyl]-6-hydroxy-5-[(3R)-3-phenylpyrrolidine-1-carbonyl]-3,4-dihydropyrimidin-4-one] gave an EC50 of 0.01 to 10 nM.
For `CC[C@@H](c1cc(F)cc(F)c1)n1c(-c2cnn(C)c2)nc(=O)c(C(=O)N2CCC(c3ccc(F)cc3)C2)c1O` (single isomer, unassigned) [Example 197], the EC50 was 0.01 to 10 nM.
`CC[C@@H](c1cc(F)cc(F)c1)n1c(-c2ccn(C)n2)nc(=O)c(C(=O)N2CCC(c3ccc(Cl)cn3)C2)c1O` (single isomer, unassigned) [Example 190] was tested, and the EC50 was 0.01 to 10 nM.
`COc1ccccc1C1CCN(C(=O)c2c(O)n(-c3c(OC)cccc3OC)c(COC(C)C)nc2=O)C1` (single isomer, unassigned) [Example 160, 1-(2,6-dimethoxyphenyl)-6-hydroxy-5-[3-(2-methoxyphenyl)pyrrolidine-1-carbonyl]-2-[(propan-2-yloxy)methyl]-1,4-dihydropyrimidin-4-one] was tested, and the EC50 was 0.01 to 10 nM.
Work on `CC[C@@H](c1cc(F)cc(F)c1)n1c(-c2ccn(C)n2)nc(=O)c(C(=O)N2CCC(c3ccccc3OC)C2)c1O` (single isomer, unassigned) [Example 195] yielded an EC50 of 0.01 to 10 nM.
Work on `COc1cccc(OC)c1-n1c(COC2CC2)nc(=O)c(C(=O)N2CCC(c3ccccc3F)C2)c1O` (single isomer, unassigned) [Example 10, 2-(cyclopropoxymethyl)-1-(2,6-dimethoxyphenyl)-5-(3-(2-fluorophenyl)pyrrolidine-1-carbonyl)-6-hydroxypyrimidin-4(1H)-one] yielded an EC50 of 0.01 to 10 nM.
For `CC[C@@H](c1cc(F)cc(F)c1)n1c(-c2cnn(C)c2)nc(=O)c(C(=O)N2CCC(c3ncc(F)cc3F)C2)c1O` (single isomer, unassigned) [Example 217], the EC50 was 0.01 to 10 nM.
For `CC[C@@H](c1cc(F)cc(F)c1)n1c(-c2ccn(CC)n2)nc(=O)c(C(=O)N2CCC(c3ncccc3F)C2)c1O` (single isomer, unassigned) [Example 186], the EC50 was 0.01 to 10 nM.
Work on `COc1cccc(OC)c1-n1c(CCC2CC2)nc(=O)c(C(=O)N2CCC(c3ccc(F)cn3)C2)c1O` (single isomer, unassigned) [Example 177, 2-(2-cyclopropylethyl)-1-(2,6-dimethoxyphenyl)-5-[3-(5-fluoropyridin-2-yl)pyrrolidine-1-carbonyl]-6-hydroxy-1,4-dihydropyrimidin-4-one] yielded an EC50 of 0.01 to 10 nM.
Work on `CC[C@@H](c1cc(F)cc(F)c1)n1c(-c2ccn(CC)n2)nc(=O)c(C(=O)N2CCC(c3ccc(F)cn3)C2)c1O` (single isomer, unassigned) [Example 216] yielded an EC50 of 0.01 to 10 nM.

Same assay, conditions: read-out: hAPJ cAMP EC50 Potency range
`CCOCc1nc(=O)c(C(=O)N2CCC(Cc3ccc(Cl)cc3)CC2)c(O)n1-c1c(OC)cccc1OC` [Example 375, 5-(4-(4-chlorobenzyl)piperidine-1-carbonyl)-1-(2,6-dimethoxyphenyl)-2-(ethoxymethyl)-6-hydroxypyrimidin-4(1H)-one] was tested, and the EC50 was 0.01 to 10 nM.

Same assay, conditions: read-out: hAPJ cAMP EC50 Potency range; human APJ, intracellular cAMP accumulation
`CCCCc1nc(=O)c(C(=O)N2CCC(c3ccc(Cl)cc3)C2)c(O)n1-c1c(OC)cccc1OC` (single isomer, unassigned) [Example 45, 2-butyl-5-[3-(4-chlorophenyl)pyrrolidine-1-carbonyl]-1-(2,6-dimethoxyphenyl)-6-hydroxy-1,4-dihydropyrimidin-4-one] was tested, and the EC50 was 0.01 to 10 nM.
